One compound from PMC5218480 (PLoS ONE, 2017) can be followed below.

The test system of the experiment is MV-4-11 cells. Kind of experiment: Gene expression microarray analysis (Affymetrix PrimeView) and GSEA. As to conditions: ProbeSet 11728314_at; LIST B. The experiment is classed as cell-based, human. Also noted: RFU PODN (11730768_x_at) / Fold change /veh PODN (11730768_x_at) / RFU LINC00158 (11744669_a_at) / Fold change /veh LINC00158 (11744669_a_at) / RFU DUSP10 (11751237_a_at) / Fold change /veh DUSP10 (11751237_a_at) / RFU ID3 (11757404_x_at) / Fold change /veh ID3 (11757404_x_at) / RFU PLEKHG5 (11737974_s_at) / Fold change /veh PLEKHG5 (11737974_s_at) / RFU LRRC4B (11730491_at) / Fold change /veh LRRC4B (11730491_at) / RFU GIMAP4 (11747438_a_at) / Fold change /veh GIMAP4 (11747438_a_at) / RFU KRT8 (11758183_x_at) / Fold change /veh KRT8 (11758183_x_at) / RFU CNN1 (11734310_a_at) / Fold change /veh CNN1 (11734310_a_at) / RFU VPS37D (11726825_at) / Fold change /veh VPS37D (11726825_at) / RFU C10orf10 (11716522_x_at) / Fold change /veh C10orf10 (11716522_x_at) / RFU KIR2DL2 /// KIR2DL4 /// KIR2DL5A /// KIR2DL5B /// KIR2DS1 /// KIR2DS2 /// KIR2DS3 /// KIR2DS4 /// KIR3DL3 /// KIR3DL3 /// KIR3DS1 (11738374_at) / Fold change /veh KIR2DL2 /// KIR2DL4 /// KIR2DL5A /// KIR2DL5B /// KIR2DS1 /// KIR2DS2 /// KIR2DS3 /// KIR2DS4 /// KIR3DL3 /// KIR3DL3 /// KIR3DS1 (11738374_at) / RFU C1QL1 (11718748_at) / Fold change /veh C1QL1 (11718748_at) / RFU TMPRSS4 (11747572_a_at) / Fold change /veh TMPRSS4 (11747572_a_at) / RFU HAMP (11756126_x_at) / Fold change /veh HAMP (11756126_x_at) / RFU RNFT2 (11725882_a_at) / Fold change /veh RNFT2 (11725882_a_at) / RFU NR4A2 (11747474_a_at) / Fold change /veh NR4A2 (11747474_a_at) / RFU ABCC12 (11746883_a_at) / Fold change /veh ABCC12 (11746883_a_at) / RFU TMEM136 (11760407_x_at) / Fold change /veh TMEM136 (11760407_x_at) / RFU CLDN22 /// WWC2 (11732394_at) / Fold change /veh CLDN22 /// WWC2 (11732394_at) / RFU HLA-DPB1 (11760878_x_at) / Fold change /veh HLA-DPB1 (11760878_x_at) / RFU SPINT1 (11716480_a_at) / Fold change /veh SPINT1 (11716480_a_at) / RFU GAP43 (11754022_s_at) / Fold change /veh GAP43 (11754022_s_at) / RFU A4GNT (11735810_at) / Fold change /veh A4GNT (11735810_at) / RFU PRB3 (11715151_x_at) / Fold change /veh PRB3 (11715151_x_at) / RFU TUBB4B (11761932_at) / Fold change /veh TUBB4B (11761932_at) / RFU CAPN14 (11732068_a_at) / Fold change /veh CAPN14 (11732068_a_at) / RFU TMCC2 (11721928_a_at) / Fold change /veh TMCC2 (11721928_a_at) / RFU IRGQ (11745062_a_at) / Fold change /veh IRGQ (11745062_a_at) / RFU FAM174B (11720279_a_at) / Fold change /veh FAM174B (11720279_a_at) / RFU TMPRSS4 (11748680_a_at) / Fold change /veh TMPRSS4 (11748680_a_at) / RFU FAM212B (11763350_a_at) / Fold change /veh FAM212B (11763350_a_at) / RFU PLEKHG5 (11743358_a_at) / Fold change /veh PLEKHG5 (11743358_a_at) / RFU ZSCAN30 (11745921_a_at) / Fold change /veh ZSCAN30 (11745921_a_at) / RFU CMKLR1 (11741424_a_at) / Fold change /veh CMKLR1 (11741424_a_at) / RFU LOC101060620 /// MAPK8IP1 (11723275_at) / Fold change /veh LOC101060620 /// MAPK8IP1 (11723275_at) / RFU SPTSSB (11747773_x_at) / Fold change /veh SPTSSB (11747773_x_at) / RFU PRSS12 (11739890_at) / Fold change /veh PRSS12 (11739890_at) / RFU BIN1 (11741810_x_at) / Fold change /veh BIN1 (11741810_x_at) / RFU WNT11 (11732464_a_at) / Fold change /veh WNT11 (11732464_a_at) / RFU C10orf10 (11716521_a_at) / Fold change /veh C10orf10 (11716521_a_at) / RFU C5orf56 (11738089_at) / Fold change /veh C5orf56 (11738089_at) / RFU CYB561 (11721691_x_at) / Fold change /veh CYB561 (11721691_x_at) / RFU ANKRD19P (11752326_a_at) / Fold change /veh ANKRD19P (11752326_a_at) / RFU OR2T12 /// OR2T33 /// OR2T8 (11738714_s_at) / Fold change /veh OR2T12 /// OR2T33 /// OR2T8 (11738714_s_at) / RFU VCAN (11748164_a_at) / Fold change /veh VCAN (11748164_a_at) / RFU JSRP1 (11732532_at) / Fold change /veh JSRP1 (11732532_at) / RFU KRTAP10-11 (11738290_x_at) / Fold change /veh KRTAP10-11 (11738290_x_at) / RFU MYO3A (11730013_a_at) / Fold change /veh MYO3A (11730013_a_at) / RFU EBF3 (11725865_a_at) / Fold change /veh EBF3 (11725865_a_at) / RFU CAMK2N1 (11719241_x_at) / Fold change /veh CAMK2N1 (11719241_x_at) / RFU C5orf56 (11738088_a_at) / Fold change /veh C5orf56 (11738088_a_at) / RFU OLFML3 (11715873_a_at) / Fold change /veh OLFML3 (11715873_a_at) / RFU LOC100653217 /// NTM (11731650_a_at) / Fold change /veh LOC100653217 /// NTM (11731650_a_at) / RFU MAPK11 (11762145_a_at) / Fold change /veh MAPK11 (11762145_a_at) / RFU FIZ1 (11724087_x_at) / Fold change /veh FIZ1 (11724087_x_at) / RFU OASL (11726364_x_at) / Fold change /veh OASL (11726364_x_at) / RFU SOX15 (11748057_x_at) / Fold change /veh SOX15 (11748057_x_at) / RFU CD79A (11719716_a_at) / Fold change /veh CD79A (11719716_a_at) / RFU HIST1H1D (11736915_at) / Fold change /veh HIST1H1D (11736915_at) / RFU CASKIN2 (11723855_a_at) / Fold change /veh CASKIN2 (11723855_a_at) / RFU LOC730098 (11760151_x_at) / Fold change /veh LOC730098 (11760151_x_at) / RFU OR4N2 (11742367_at) / Fold change /veh OR4N2 (11742367_at) / RFU PRRT2 (11749266_a_at) / Fold change /veh PRRT2 (11749266_a_at) / RFU SNX32 (11753110_a_at) / Fold change /veh SNX32 (11753110_a_at) / RFU CDHR5 (11726645_a_at) / Fold change /veh CDHR5 (11726645_a_at) / RFU RCAN1 (11760418_a_at) / Fold change /veh RCAN1 (11760418_a_at) / RFU FAM167A (11723789_a_at) / Fold change /veh FAM167A (11723789_a_at) / RFU FAM26E (11764081_at) / Fold change /veh FAM26E (11764081_at) / RFU ISYNA1 (11749810_s_at) / Fold change /veh ISYNA1 (11749810_s_at) / RFU ACY1 (11761880_at) / Fold change /veh ACY1 (11761880_at) / RFU 11764098_at / Fold change /veh 11764098_at / RFU SAMD14 (11745864_x_at) / Fold change /veh SAMD14 (11745864_x_at) / RFU NPB (11741838_a_at) / Fold change /veh NPB (11741838_a_at) / RFU TMPRSS6 (11731388_a_at) / Fold change /veh TMPRSS6 (11731388_a_at) / RFU KRTAP10-2 (11738614_at) / Fold change /veh KRTAP10-2 (11738614_at) / RFU ARHGAP8 /// PRR5-ARHGAP8 (11727945_x_at) / Fold change /veh ARHGAP8 /// PRR5-ARHGAP8 (11727945_x_at) / RFU KRTAP5-7 /// NADSYN1 (11734609_at) / Fold change /veh KRTAP5-7 /// NADSYN1 (11734609_at) / RFU RASL12 (11751679_a_at) / Fold change /veh RASL12 (11751679_a_at) / RFU CDKN2B (11736163_a_at) / Fold change /veh CDKN2B (11736163_a_at) / RFU PRF1 (11729649_at) / Fold change /veh PRF1 (11729649_at) / RFU, ZNF638 /// ZNF638-IT1 / Fold change vs veh, ZNF638 /// ZNF638-IT1 / RFU, PANK3 / Fold change vs veh, PANK3 / RFU, SH3YL1 / Fold change vs veh, SH3YL1 / RFU, ZEB2 / Fold change vs veh, ZEB2 / RFU, NRIP1 / Fold change vs veh, NRIP1 / RFU, PTTG1IP / Fold change vs veh, PTTG1IP / RFU, CAPN2 / Fold change vs veh, CAPN2 / RFU, MED14 / Fold change vs veh, MED14 / RFU, SNORA58 / Fold change vs veh, SNORA58 / RFU, C1orf63 / Fold change vs veh, C1orf63 / RFU, LRRFIP1 / Fold change vs veh, LRRFIP1 / RFU, NDUFAF7 / Fold change vs veh, NDUFAF7 / RFU, SLC12A2 / Fold change vs veh, SLC12A2 / RFU, IBTK / Fold change vs veh, IBTK / RFU, ESF1 / Fold change vs veh, ESF1 / Fold change vs veh, TMEM50B / RFU, TAOK1 / Fold change vs veh, TAOK1 / RFU, ACBD3 / Fold change vs veh, ACBD3 / RFU, TMA16 / Fold change vs veh, TMA16 / RFU, RWDD3 / Fold change vs veh, RWDD3 / RFU, BCAT1 / Fold change vs veh, BCAT1 / RFU, EDEM3 / Fold change vs veh, EDEM3 / RFU, TMEM33 / Fold change vs veh, TMEM33 / RFU, WDR75 / Fold change vs veh, WDR75 / RFU, AHCTF1 / Fold change vs veh, AHCTF1 / RFU, TFRC / Fold change vs veh, TFRC / RFU, ZDHHC17 / Fold change vs veh, ZDHHC17 / RFU, NOM1 / Fold change vs veh, NOM1 / RFU, ARL8B / Fold change vs veh, ARL8B / RFU, ZBTB11 / Fold change vs veh, ZBTB11 / RFU, TAMM41 / Fold change vs veh, TAMM41 / RFU, KIAA1704 /// LOC100996395 / Fold change vs veh, KIAA1704 /// LOC100996395 / RFU, ING1 / Fold change vs veh, ING1 / RFU, TRMT61B / Fold change vs veh, TRMT61B / RFU, FUBP3 / Fold change vs veh, FUBP3 / RFU, TP53 / Fold change vs veh, TP53 / RFU, TNKS2 / Fold change vs veh, TNKS2 / RFU, ZFP14 / Fold change vs veh, ZFP14 / RFU, ACTR2 / Fold change vs veh, ACTR2 / RFU, PPP3R1 / Fold change vs veh, PPP3R1 / RFU, PIK3R1 / Fold change vs veh, PIK3R1 / RFU, HNRNPA1 / Fold change vs veh, HNRNPA1 / RFU, RNF170 / Fold change vs veh, RNF170 / RFU, ZNF28 / Fold change vs veh, ZNF28 / RFU, RNGTT / Fold change vs veh, RNGTT / RFU, OGT / Fold change vs veh, OGT / RFU, BRD1 / Fold change vs veh, BRD1 / RFU, MARS / Fold change vs veh, MARS / RFU, ZNF655 / Fold change vs veh, ZNF655 / RFU, FAHD1 / Fold change vs veh, FAHD1 / RFU, BDP1 / Fold change vs veh, BDP1 / RFU, LRRCC1 / Fold change vs veh, LRRCC1 / RFU, ARID1A / Fold change vs veh, ARID1A / RFU, ZNF146 / Fold change vs veh, ZNF146 / RFU, ZNF330 / Fold change vs veh, ZNF330 / RFU, GPN3 / Fold change vs veh, GPN3 / RFU, C9orf123 / Fold change vs veh, C9orf123 / RFU, N4BP2L2 / Fold change vs veh, N4BP2L2 / RFU, ARFIP1 / Fold change vs veh, ARFIP1 / RFU, FAM179B / Fold change vs veh, FAM179B / RFU, BCL10 / Fold change vs veh, BCL10 / RFU, UHRF1BP1L / Fold change vs veh, UHRF1BP1L / RFU, BET1 / Fold change vs veh, BET1 / RFU, CNOT2 / Fold change vs veh, CNOT2 / RFU, ZNF268 / Fold change vs veh, ZNF268 / Fold change vs veh, ZNF507 / RFU, DGCR2 / Fold change vs veh, DGCR2 / RFU, WDSUB1 / Fold change vs veh, WDSUB1 / Fold change vs veh, HSP90B1 /// MIR3652 / RFU, ADSS / Fold change vs veh, ADSS / RFU, GK / Fold change vs veh, GK / RFU, ZNF148 / Fold change vs veh, ZNF148 / RFU, TAF9 / Fold change vs veh, TAF9 / RFU, SLC1A5 / Fold change vs veh, SLC1A5 / RFU, SLMO2 / Fold change vs veh, SLMO2 / RFU, ABCC4 / Fold change vs veh, ABCC4 / RFU, LOC101060439 /// RAP1B / Fold change vs veh, LOC101060439 /// RAP1B / RFU, RFX7 / Fold change vs veh, RFX7 / RFU, GTPBP10 / Fold change vs veh, GTPBP10 / RFU, CNEP1R1 / Fold change vs veh, CNEP1R1 / RFU, BIVM-ERCC5 /// ERCC5 / Fold change vs veh, BIVM-ERCC5 /// ERCC5 / RFU, ILF3 / Fold change vs veh, ILF3 / RFU 11762660_at / Fold change /veh 11762660_at / RFU VCAN (11757783_s_at) / Fold change /veh VCAN (11757783_s_at) / RFU DDX43 (11728927_at) / Fold change /veh DDX43 (11728927_at) / RFU KRT8 (11758188_x_at) / Fold change /veh KRT8 (11758188_x_at) / RFU NKD1 (11759106_at) / Fold change /veh NKD1 (11759106_at) / RFU SRD5A1 (11742802_a_at) / Fold change /veh SRD5A1 (11742802_a_at) / RFU TPSAB1 /// TPSB2 (11721975_s_at) / Fold change /veh TPSAB1 /// TPSB2 (11721975_s_at) / RFU GSTM3 (11746129_a_at) / Fold change /veh GSTM3 (11746129_a_at) / RFU IL23R (11737362_x_at) / Fold change /veh IL23R (11737362_x_at) / RFU TMEM51 (11727254_a_at) / Fold change /veh TMEM51 (11727254_a_at) / RFU PIWIL2 (11732686_x_at) / Fold change /veh PIWIL2 (11732686_x_at) / RFU ORM1 (11744905_x_at) / Fold change /veh ORM1 (11744905_x_at) / RFU CCDC152 (11743942_at) / Fold change /veh CCDC152 (11743942_at) / RFU ECM1 (11717891_a_at) / Fold change /veh ECM1 (11717891_a_at) / RFU IL23R (11748794_a_at) / Fold change /veh IL23R (11748794_a_at) / RFU TNFAIP8L3 (11732012_x_at) / Fold change /veh TNFAIP8L3 (11732012_x_at) / RFU MBOAT4 (11741988_at) / Fold change /veh MBOAT4 (11741988_at) / RFU 11764193_at / Fold change /veh 11764193_at / RFU TMEM53 (11763286_at) / Fold change /veh TMEM53 (11763286_at) / RFU MAGEB2 (11727129_at) / Fold change /veh MAGEB2 (11727129_at) / RFU TMEM200A (11744735_a_at) / Fold change /veh TMEM200A (11744735_a_at) / RFU CCDC152 (11751479_a_at) / Fold change /veh CCDC152 (11751479_a_at) / RFU FAM211A (11726209_a_at) / Fold change /veh FAM211A (11726209_a_at) / RFU RGS16 (11746705_a_at) / Fold change /veh RGS16 (11746705_a_at) / RFU VCAN (11755009_s_at) / Fold change /veh VCAN (11755009_s_at) / RFU RHOB (11743442_s_at) / Fold change /veh RHOB (11743442_s_at) / RFU RGS16 (11720943_a_at) / Fold change /veh RGS16 (11720943_a_at) / RFU RGS16 (11720944_at) / Fold change /veh RGS16 (11720944_at) / RFU, VPS4B / Fold change vs veh, VPS4B / RFU, CREB1 / Fold change vs veh, CREB1 / RFU, DNAJC13 / Fold change vs veh, DNAJC13 / RFU, GNAQ / Fold change vs veh, GNAQ / RFU, CDK5R1 / Fold change vs veh, CDK5R1 / RFU, ZRANB3 / Fold change vs veh, ZRANB3 / RFU, CUL4A / Fold change vs veh, CUL4A / RFU, CCNY / Fold change vs veh, CCNY / RFU, UFL1 / Fold change vs veh, UFL1 / RFU, COG3 / Fold change vs veh, COG3 / RFU, DIAPH2 / Fold change vs veh, DIAPH2 / RFU, SKA2 / Fold change vs veh, SKA2 / RFU, AFF3 / Fold change vs veh, AFF3 / RFU, LMF1 / Fold change vs veh, LMF1 / RFU, IPO11 / Fold change vs veh, IPO11 / RFU, DFFB / Fold change vs veh, DFFB / RFU, FOXP1 / Fold change vs veh, FOXP1 / RFU, CARD8 / Fold change vs veh, CARD8 / RFU, STRN3 / Fold change vs veh, STRN3 / RFU, ADK / Fold change vs veh, ADK / RFU, RASSF2 / Fold change vs veh, RASSF2 / RFU, WIPF1 / Fold change vs veh, WIPF1 / RFU, LARP1B / Fold change vs veh, LARP1B / RFU, RASA1 / Fold change vs veh, RASA1 / RFU, RB1 / Fold change vs veh, RB1 / RFU, PPFIA1 / Fold change vs veh, PPFIA1 / RFU, MAT2A / Fold change vs veh, MAT2A / RFU, CCT5 / Fold change vs veh, CCT5 / RFU, WDR92 / Fold change vs veh, WDR92 / RFU, CUX1 / Fold change vs veh, CUX1 / RFU, TTC7A / Fold change vs veh, TTC7A / RFU, TMEM135 / Fold change vs veh, TMEM135 / RFU, DEPTOR / Fold change vs veh, DEPTOR / RFU, CPM / Fold change vs veh, CPM / RFU, DNAJB6 / Fold change vs veh, DNAJB6 / RFU, CACNA2D3 / Fold change vs veh, CACNA2D3 / RFU, DTX4 / Fold change vs veh, DTX4 / RFU, TFCP2 / Fold change vs veh, TFCP2 / RFU, GMCL1 /// GMCL1P1 / Fold change vs veh, GMCL1 /// GMCL1P1 / RFU, AEBP2 / Fold change vs veh, AEBP2 / RFU, SNHG1 /// SNORD22 /// SNORD25 /// SNORD26 /// SNORD27 /// SNORD28 /// SNORD29 /// SNORD31 / Fold change vs veh, SNHG1 /// SNORD22 /// SNORD25 /// SNORD26 /// SNORD27 /// SNORD28 /// SNORD29 /// SNORD31 / Fold change (Aza/veh), C12orf56 (ProbeSet 11735607_a_at) / Fold change (ACY-1035/veh), C12orf56 (ProbeSet 11735607_a_at) / Fold change (Aza/veh), FGFR1OP (ProbeSet 11751329_s_at) / Fold change (ACY-1035/veh), FGFR1OP (ProbeSet 11751329_s_at) / Fold change (Aza/veh), VPS36 (ProbeSet 11739960_a_at) / Fold change (ACY-1035/veh), VPS36 (ProbeSet 11739960_a_at) / RFU SYPL1 (11715823_x_at) / Fold change /veh SYPL1 (11715823_x_at) / RFU IGFBP7 (11715501_s_at) / Fold change /veh IGFBP7 (11715501_s_at) / RFU REEP3 (11722064_at) / Fold change /veh REEP3 (11722064_at) / RFU IGLL1 (11728026_x_at) / Fold change /veh IGLL1 (11728026_x_at): dose or concentration left out as unconfirmed.

As to `Nc1ncn([C@@H]2O[C@H](CO)[C@@H](O)[C@H]2O)c(=O)n1` [azacitidine], the “Fold change vs veh, ZNF148” value is listed as 0.99.
